Test results taken from paper PMC4708625 (Free Radical Biology & Medicine, 2016).

Tests used:
[1] = target: T1, Carboxylesterase 1 isoform b (Ces1b) (Homo sapiens, UniProt P23141); test: inhibition of Amplex Red to resorufin conversion by recombinant Ces1b (fluorescence); type: biochemical
T1 construct: gene CES1
T1 sequence (P23141 18-567): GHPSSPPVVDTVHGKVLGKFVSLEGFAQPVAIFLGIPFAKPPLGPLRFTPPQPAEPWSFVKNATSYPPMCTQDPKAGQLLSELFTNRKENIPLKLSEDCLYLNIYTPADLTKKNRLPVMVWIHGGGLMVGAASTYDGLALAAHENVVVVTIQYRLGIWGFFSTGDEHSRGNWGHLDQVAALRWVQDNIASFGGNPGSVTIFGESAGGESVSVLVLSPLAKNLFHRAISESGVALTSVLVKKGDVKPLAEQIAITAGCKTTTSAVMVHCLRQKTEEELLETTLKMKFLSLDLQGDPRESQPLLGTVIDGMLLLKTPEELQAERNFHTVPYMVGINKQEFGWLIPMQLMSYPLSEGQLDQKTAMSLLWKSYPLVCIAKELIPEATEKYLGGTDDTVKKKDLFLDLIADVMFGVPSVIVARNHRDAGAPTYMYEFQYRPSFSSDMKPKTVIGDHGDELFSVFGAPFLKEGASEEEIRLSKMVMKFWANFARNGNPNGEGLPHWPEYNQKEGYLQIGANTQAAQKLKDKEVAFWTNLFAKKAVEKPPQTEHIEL

[2] = target: T1, Carboxylesterase 1 isoform b (Ces1b); test: biochemical; settings: read-out: % inhibition at 100 μM
[3] = target: T1, Carboxylesterase 1 isoform b (Ces1b); test: dose response of Amplex Red to resorufin conversion by recombinant Ces1b (fluorescence); type: biochemical
purified protein = substrate: CC(=O)N1c2ccc(O)cc2Oc2cc(O)ccc21; test: purified protein; settings: docking: carbonyl carbon near Ser221, carbonyl oxygen in oxyanion hole of Gly142 and Gly143

Work on `O=[N+]([O-])c1ccc(OP(=O)(O)Oc2ccc([N+](=O)[O-])cc2)cc1` [BNPP, bis(4-nitrophenyl)phosphate] yielded an IC50 [1] of roughly 150 nM.

For `CN(C)C(=O)C(CCN1CCC(O)(c2ccc(Cl)cc2)CC1)(c1ccccc1)c1ccccc1` [LPM, Loperamide], the inhibition at 100 µM [2] was roughly 50%.

For `O=S(=O)(F)Cc1ccccc1` [PMSF, Phenylmethyl sulfonyl fluoride], the IC50 [3] was roughly 5000 nM.

B1: Carboxylesterase 1 isoform b (Ces1b) (Homo sapiens) (protein)
chain: GHPSSPPVVDTVHGKVLGKFVSLEGFAQPVAIFLGIPFAKPPLGPLRFTPPQPAEPWSFVKNATSYPPMCTQDPKAGQLLSELFTNRKENIPLKLSEDCLYLNIYTPADLTKKNRLPVMVWIHGGGLMVGAASTYDGLALAAHENVVVVTIQYRLGIWGFFSTGDEHSRGNWGHLDQVAALRWVQDNIASFGGNPGSVTIFGESAGGESVSVLVLSPLAKNLFHRAISESGVALTSVLVKKGDVKPLAEQIAITAGCKTTTSAVMVHCLRQKTEEELLETTLKMKFLSLDLQGDPRESQPLLGTVIDGMLLLKTPEELQAERNFHTVPYMVGINKQEFGWLIPMQLMSYPLSEGQLDQKTAMSLLWKSYPLVCIAKELIPEATEKYLGGTDDTVKKKDLFLDLIADVMFGVPSVIVARNHRDAGAPTYMYEFQYRPSFSSDMKPKTVIGDHGDELFSVFGAPFLKEGASEEEIRLSKMVMKFWANFARNGNPNGEGLPHWPEYNQKEGYLQIGANTQAAQKLKDKEVAFWTNLFAKKAVEKPPQTEHIEL
With B1 the Km (purified protein) was 55 ± 12 µM.
